# Patent US5268374A, “Non-peptide renin inhibitors” (Abbott Laboratories, priority 1991, dated 1993)
# Experiments:
# [1] = biological target: T1, human renal renin (Homo sapiens, UniProt P00797); test: Inhibition of human renal renin in vitro (angiotensin I formation by radioimmunoassay); assay type: biochemical; settings: human renal renin, 37 degrees C, pH 6.0; read-out: IC50
# T1 construct: from tissue; host or cells: human kidney (read from the word 'renal'; no preparation is printed)
# T1 sequence (P00797 67-406): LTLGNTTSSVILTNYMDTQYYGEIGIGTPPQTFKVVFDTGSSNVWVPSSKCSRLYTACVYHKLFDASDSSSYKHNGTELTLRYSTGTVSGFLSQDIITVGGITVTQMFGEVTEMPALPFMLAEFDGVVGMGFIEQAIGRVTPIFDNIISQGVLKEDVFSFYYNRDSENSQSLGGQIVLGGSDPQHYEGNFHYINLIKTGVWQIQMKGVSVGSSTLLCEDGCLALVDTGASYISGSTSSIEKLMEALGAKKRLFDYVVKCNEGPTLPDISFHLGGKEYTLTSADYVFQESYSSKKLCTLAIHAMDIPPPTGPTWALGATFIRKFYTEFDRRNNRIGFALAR
# [2] = Blood pressure in salt-depleted monkeys after oral dosing; assay type: in vivo, cynomolgous monkeys; settings: 3 mg/kg oral
# Source text: (§1) The ability of the compounds of the invention to decrease blood pressure and plasma renin activity in vivo can be determined using the following method.
# (§2) Male cynomolgous monkeys housed under constant temperature and lighting conditions and weighing 3-5 kg were instrumented with chronic indwelling arterial and venous catheters.
# [3] = tested on: plasma renin; test: Plasma renin activity (PRA) in salt-depleted monkeys after oral dosing; assay type: in vivo, cynomolgous monkeys; settings: 3 mg/kg oral
# Source text: as §1, §2
# [4] = Mean of two monkeys, time 0 min
structure (smiles),measurement,setting,value
"CCCC[C@H](O[C@@H](Cc1ccccc1)C(=O)N1CCC(OCOC)CC1)C(=O)N[C@@H](CC1CCCCC1)[C@@H](O)C[C@H](C(=O)NCCCN1CCOCC1)C(C)C [Example 118, 2(S)-(1(S)-(4-(Methoxymethoxy)piperidin-1-yl)carbonyl-2-phenyl)ethoxyhexanoic acid amide of 3-(4-morpholinyl)propyl 5(S)-amino-6-cyclohexyl-4(S)-hydroxy-2(S)-isopropylhexanamide]",IC50,[1],0.84 nM
same,Blood pressure (BP),"[2]; Mean of two monkeys, 5 min",117 mmHg
same,Blood pressure (BP),"[2]; Mean of two monkeys, 15 min",111 mmHg
same,Blood pressure (BP),"[2]; Mean of two monkeys, 30 min",112 mmHg
same,Blood pressure (BP),"[2]; Mean of two monkeys, 45 min",104 mmHg
same,Blood pressure (BP),"[2]; Mean of two monkeys, 60 min",109 mmHg
same,Blood pressure (BP),"[2]; Mean of two monkeys, 90 min",98 mmHg
same,Blood pressure (BP),"[2]; Mean of two monkeys, 120 min",94 mmHg
same,Blood pressure (BP),"[2]; Mean of two monkeys, 180 min",94 mmHg
same,Blood pressure (BP),"[2]; Mean of two monkeys, 360 min",99 mmHg
same,Blood pressure (BP),[2]; [4],114 mmHg
same,Blood pressure (BP),"[2]; Monkey 1, 5 min",112 mmHg
same,Blood pressure (BP),"[2]; Monkey 1, 15 min",105 mmHg
same,Blood pressure (BP),"[2]; Monkey 1, 30 min",113 mmHg
same,Blood pressure (BP),"[2]; Monkey 1, 45 min",95 mmHg
same,Blood pressure (BP),"[2]; Monkey 1, 60 min",102 mmHg
same,Blood pressure (BP),"[2]; Monkey 1, 90 min",90 mmHg
same,Blood pressure (BP),"[2]; Monkey 1, 120 min",84 mmHg
same,Blood pressure (BP),"[2]; Monkey 1, 180 min",84 mmHg
same,Blood pressure (BP),"[2]; Monkey 1, 360 min",94 mmHg
same,Blood pressure (BP),"[2]; Monkey 1, time 0 min",107 mmHg
same,Blood pressure (BP),"[2]; Monkey 2, 5 min",121 mmHg
same,Blood pressure (BP),"[2]; Monkey 2, 15 min",117 mmHg
same,Blood pressure (BP),"[2]; Monkey 2, 30 min",110 mmHg
same,Blood pressure (BP),"[2]; Monkey 2, 45 min",112 mmHg
same,Blood pressure (BP),"[2]; Monkey 2, 60 min",115 mmHg
same,Blood pressure (BP),"[2]; Monkey 2, 90 min",106 mmHg
same,Blood pressure (BP),"[2]; Monkey 2, 120 min",103 mmHg
same,Blood pressure (BP),"[2]; Monkey 2, 180 min",103 mmHg
same,Blood pressure (BP),"[2]; Monkey 2, 360 min",103 mmHg
same,Blood pressure (BP),"[2]; Monkey 2, time 0 min",120 mmHg
same,Plasma Renin Activity (PRA),"[3]; Mean of two monkeys, 5 min",9.7 ng/mL/h
same,Plasma Renin Activity (PRA),"[3]; Mean of two monkeys, 15 min",1.5 ng/mL/h
same,Plasma Renin Activity (PRA),"[3]; Mean of two monkeys, 30 min",0.4 ng/mL/h
same,Plasma Renin Activity (PRA),"[3]; Mean of two monkeys, 45 min",0.2 ng/mL/h
same,Plasma Renin Activity (PRA),"[3]; Mean of two monkeys, 60 min",0.2 ng/mL/h
same,Plasma Renin Activity (PRA),"[3]; Mean of two monkeys, 90 min",0.0 ng/mL/h
same,Plasma Renin Activity (PRA),"[3]; Mean of two monkeys, 120 min",0.3 ng/mL/h
same,Plasma Renin Activity (PRA),"[3]; Mean of two monkeys, 180 min",0.3 ng/mL/h
same,Plasma Renin Activity (PRA),"[3]; Mean of two monkeys, 360 min",0.2 ng/mL/h
same,Plasma Renin Activity (PRA),[3]; [4],23.9 ng/mL/h
same,Plasma Renin Activity (PRA),"[3]; Monkey 1, 5 min",5.8 ng/mL/h
same,Plasma Renin Activity (PRA),"[3]; Monkey 1, 15 min",0.1 ng/mL/h
same,Plasma Renin Activity (PRA),"[3]; Monkey 1, 30 min",0.4 ng/mL/h
same,Plasma Renin Activity (PRA),"[3]; Monkey 1, 45 min",0.0 ng/mL/h
same,Plasma Renin Activity (PRA),"[3]; Monkey 1, 60 min",0.0 ng/mL/h
same,Plasma Renin Activity (PRA),"[3]; Monkey 1, 90 min",0.0 ng/mL/h
same,Plasma Renin Activity (PRA),"[3]; Monkey 1, 120 min",0.2 ng/mL/h
same,Plasma Renin Activity (PRA),"[3]; Monkey 1, 180 min",0.2 ng/mL/h
same,Plasma Renin Activity (PRA),"[3]; Monkey 1, 360 min",0.0 ng/mL/h
same,Plasma Renin Activity (PRA),"[3]; Monkey 1, time 0 min",29.1 ng/mL/h
same,Plasma Renin Activity (PRA),"[3]; Monkey 2, 5 min",13.5 ng/mL/h
same,Plasma Renin Activity (PRA),"[3]; Monkey 2, 15 min",2.9 ng/mL/h
same,Plasma Renin Activity (PRA),"[3]; Monkey 2, 30 min",0.4 ng/mL/h
same,Plasma Renin Activity (PRA),"[3]; Monkey 2, 45 min",0.3 ng/mL/h
same,Plasma Renin Activity (PRA),"[3]; Monkey 2, 60 min",0.3 ng/mL/h
same,Plasma Renin Activity (PRA),"[3]; Monkey 2, 90 min",0.0 ng/mL/h
same,Plasma Renin Activity (PRA),"[3]; Monkey 2, 120 min",0.4 ng/mL/h
same,Plasma Renin Activity (PRA),"[3]; Monkey 2, 180 min",0.4 ng/mL/h
same,Plasma Renin Activity (PRA),"[3]; Monkey 2, 360 min",0.3 ng/mL/h
same,Plasma Renin Activity (PRA),"[3]; Monkey 2, time 0 min",18.7 ng/mL/h
